According to US9427444B2, “Pharmaceutical and cosmetic compositions for accelerated healing of wounds and other surface damages” (MITOTECH SA, priority 2007, dated 2016):

Columns and labels:
[1] = tested on: human fibroblast monolayer; assay: Human fibroblast monolayer damage, model of wound in vitro; format: cell-based
Source text: Human fibroblast monolayer damage—is a model of wound in vitro, as fibroblasts are basement of connective tissue, which structure falls with any injury or damage. It is known that fibroblasts are one of the first to enter wounded area that considerably determines its healing. Fibroblast monolayer was damaged with sterile scalpel; as a result a 2000 micron wide distant break appeared. Ability of fibroblasts to heal the wound was estimated by length of cell migration zone, appeared during certain time period (1 day) inside the wound. Cell migration zone length depends directly on healing speed of artificially given wound. Results of several different SkQ1 concentrations test are shown on FIG. 4.

[2] = tested on: human subdermal diploid fibroblasts; assay: Differentiation of human subdermal fibroblasts into myofibroblasts (cell square, unstriped muscle actin, vinculin contacts); format: cell-based
Source text: Myofibroblasts emerge as result of normal fibroblast differentiation and in comparison to them have bigger size, better adherence to the substrate (in vivo to extracellular matrix, in vitro to plastic), different cytoskeleton structure and contractive activity.
Main myofibroblast marker is unstriped muscle actin form, which mediates its contraction activity and almost never can be found in normal fibroblasts.
Better adherence to the substrate is also a characteristic feature of myofibroblasts, it promotes its movement into wound and brace of wound edges. In our experiments we estimated number of tight contacts between cell and substrate, containing special focal adhesion protein vinculin.
It is important to notice that short incubation with SkQ1 for 1-2 hours is enough for induction of this transformation, and further a population of myofibroblasts is supported in a media without SkQ1 for at least 4-6 weeks.

[3] = tested on: fibroblast culture; assay: IF staining of cytoskeleton and fibronectin in fibroblast culture treated with SkQ1; format: cell-based, human
Source text: It points to contraction activity and cell movement enhancement. […] This was done by IF staining of actin and myosin in fibroblast stress-fibrils, treated with SkQ1 and from control group.
Further on we analyzed a consistence of main extracellular matrix protein fibronectin in fibroblast culture, treated with SkQ1. […] Fibronectinic matrix forms as a result of both cell secretion and reorganization of matrix components present in culture in formation of serum. Fibronectin produced by fibroblasts has certain structural alterity that gives a possibility to construct selective antibodies.

[4] = tested on: LAR epithelial cell line; assay: Epithelial layer movement into the wound in vitro; format: cell-based
Description: Along with fibroblast movement and contraction, in wound healing a formation plays an important role of new epithelial layers in the wound—so called reepithalialization. Study on this process in vitro was carried out using LAR epithelial cell line. […] Ability of cell to form tight “islands” and single epithelial layer also weren't disturbed. Studies on expression of intracellular contact protein E-cadherin specific for epithelium confirmed epithelial structure stability in presence of SkQ1. […] This effect was studied in vitro using the same mode that was used in fibroblast studies. […] Unlike fibroblasts, epithelial cells moved into the wound in a single layer with all characteristic morphology and intracellular contacts.

For `CC1=C(C)C(=O)C(CCCCCCCCCC[P+](c2ccccc2)(c2ccccc2)c2ccccc2)=CC1=O.[Br-]` [SkQ1], which “length of cell migration zone inside the wound” value ([1]; 1 day, 2000 micron wide break, FIG. 4) is on record?
The value was “short period incubation with SkQ1 caused effect, which continued for a long time even without SkQ1”.

And the “number of cell rows entered to the wound” value ([1]; 24 hours, FIG. 5)?
Its value is “Injury healing acceleration”.

What about the “incubation time enough for induction of transformation into myofibroblasts” value [2] of the same compound?
Its value is 1 to 2 h.

What about the “average square value increase” value ([2]; SkQ1 20 nM, whole population) of the same compound?
Its value is “increases more then two-three fold”.

And the “number of vinculin-containing contacts per cell” value ([2]; SkQ1 treated versus control cells, FIG. 3)?
The value was “increase of number of contacts per cell”.

And the “average square of significant group of cells over control value (cell size distribution)” value ([2]; SkQ1 treatment, FIG. 2)?
The value was 5-6 fold.

What about the “unstriped muscle actin form (IF staining) in giant cells versus normal fibroblasts” value ([2]; after SkQ1 treatment) of the same compound?
Its value is “heavy increase”.

What about the “time myofibroblast population is supported in media without SkQ1” value ([2]; after short incubation with SkQ1) of the same compound?
The value was 4-6 weeks.

And the “cell skeleton reorganization, stress-fibrils” value ([3]; IF staining of actin and myosin)?
The value was “active cell skeleton reorganization with stress-fibril enhancement”.

What about the “fibronectin level (IF staining)” value ([3]; monolayer areas and cell migration zone) of the same compound?
The value was “significant increase”.

What about the “intracellular expression of fibronectin” value ([3]; selective antibodies to fibroblast fibronectin) of the same compound?
Its value is “raises”.

What about the “actinic stress-fibrils in the cells” value [4] of the same compound?
Its value is “significantly raised”.

And the “cell movement into the wound” value [4]?
The value was “significantly accelerates cell movement into the wound”.

And the “morphological changes of epithelial cells” value [4]?
The value was “didn't cause significant morphological changes”.

What about the “persistence of effect on epithelial cells after drug withdrawal” value [4] of the same compound?
The value was “continued long after drug withdrawal”.
